According to patent US20170081347A1, “FUNCTIONALIZED AZABORINE COMPOUNDS AND AZABORINE-CONTAINING BIARYLCARBOXAMIDES, AND COMPOSITIONS AND METHODS THEREOF” (The Trustees of Boston College, priority 2014, published 2017):
Converted amounts (≈) assume the structure as drawn. Like-named read-outs stand apart in the source and are kept apart here.

What was measured:
Solubility pH = 6.8 = format: physicochemical; details: aqueous buffer
[1] = Solubility FASSIF (fasted state simulated intestinal fluid); format: physicochemical
CYP3A4 = CYP3A4 (Homo sapiens, UniProt P08684); experiment: CYP3A4 (Cytochrome P450 3A4); format: in vitro ADME
Sequence of CYP3A4 (P08684 whole entry): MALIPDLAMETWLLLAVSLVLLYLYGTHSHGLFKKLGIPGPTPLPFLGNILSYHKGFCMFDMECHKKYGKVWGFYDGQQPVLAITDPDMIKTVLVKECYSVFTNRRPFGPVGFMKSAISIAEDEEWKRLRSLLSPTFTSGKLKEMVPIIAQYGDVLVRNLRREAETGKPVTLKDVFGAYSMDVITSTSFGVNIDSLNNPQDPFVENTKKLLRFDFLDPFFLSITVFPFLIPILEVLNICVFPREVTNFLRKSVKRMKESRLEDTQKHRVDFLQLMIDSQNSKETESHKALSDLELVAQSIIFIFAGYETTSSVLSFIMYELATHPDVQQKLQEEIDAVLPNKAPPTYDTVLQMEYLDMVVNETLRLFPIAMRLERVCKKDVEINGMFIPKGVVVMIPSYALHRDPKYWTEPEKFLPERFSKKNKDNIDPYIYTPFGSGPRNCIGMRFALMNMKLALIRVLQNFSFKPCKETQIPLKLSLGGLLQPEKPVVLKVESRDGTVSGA

hERG = hERG (Homo sapiens, UniProt Q12809); experiment: hERG
Sequence of hERG (Q12809 whole entry): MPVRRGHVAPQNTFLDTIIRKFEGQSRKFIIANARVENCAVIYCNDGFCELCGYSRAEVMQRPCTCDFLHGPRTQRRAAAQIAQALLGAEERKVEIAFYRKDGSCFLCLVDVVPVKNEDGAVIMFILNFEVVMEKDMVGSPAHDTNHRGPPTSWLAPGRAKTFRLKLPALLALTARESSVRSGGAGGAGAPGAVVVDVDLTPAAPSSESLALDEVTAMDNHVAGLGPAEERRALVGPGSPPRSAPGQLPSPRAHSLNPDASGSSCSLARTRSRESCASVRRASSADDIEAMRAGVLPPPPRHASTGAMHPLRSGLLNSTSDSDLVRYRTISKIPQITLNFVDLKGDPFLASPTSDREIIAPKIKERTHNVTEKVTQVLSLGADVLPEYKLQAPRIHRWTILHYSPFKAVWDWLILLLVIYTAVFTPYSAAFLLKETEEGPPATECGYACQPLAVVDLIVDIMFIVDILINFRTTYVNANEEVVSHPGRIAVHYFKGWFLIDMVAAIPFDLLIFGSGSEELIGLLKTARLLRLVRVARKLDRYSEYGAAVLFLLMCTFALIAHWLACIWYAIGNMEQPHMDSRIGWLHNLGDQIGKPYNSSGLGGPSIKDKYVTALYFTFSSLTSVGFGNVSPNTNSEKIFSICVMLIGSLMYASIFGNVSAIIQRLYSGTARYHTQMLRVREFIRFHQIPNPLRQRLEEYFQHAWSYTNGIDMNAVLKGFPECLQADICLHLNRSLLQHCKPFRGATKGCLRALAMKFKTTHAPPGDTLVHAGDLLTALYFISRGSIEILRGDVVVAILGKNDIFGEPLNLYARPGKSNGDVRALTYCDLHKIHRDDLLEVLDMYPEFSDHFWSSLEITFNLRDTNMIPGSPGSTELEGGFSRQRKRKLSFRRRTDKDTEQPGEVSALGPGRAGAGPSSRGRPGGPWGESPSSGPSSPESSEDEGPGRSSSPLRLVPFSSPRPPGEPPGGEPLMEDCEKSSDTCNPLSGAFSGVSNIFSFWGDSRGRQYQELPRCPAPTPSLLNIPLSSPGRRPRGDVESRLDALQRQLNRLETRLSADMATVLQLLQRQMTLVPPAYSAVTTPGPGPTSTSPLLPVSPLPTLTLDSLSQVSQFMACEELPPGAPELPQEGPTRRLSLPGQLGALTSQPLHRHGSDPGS

LogD = format: physicochemical
[2] = PAMPA (parellel artificial membrane permeability assay); format: in vitro ADME; parameters: unit not given here
RLM Cl = format: in vitro ADME
Dopamine D3 = Dopamine D3 (Homo sapiens, UniProt P35462); experiment: Dopamine D3 antagonist; format: biochemical
Sequence of Dopamine D3 (P35462 whole entry): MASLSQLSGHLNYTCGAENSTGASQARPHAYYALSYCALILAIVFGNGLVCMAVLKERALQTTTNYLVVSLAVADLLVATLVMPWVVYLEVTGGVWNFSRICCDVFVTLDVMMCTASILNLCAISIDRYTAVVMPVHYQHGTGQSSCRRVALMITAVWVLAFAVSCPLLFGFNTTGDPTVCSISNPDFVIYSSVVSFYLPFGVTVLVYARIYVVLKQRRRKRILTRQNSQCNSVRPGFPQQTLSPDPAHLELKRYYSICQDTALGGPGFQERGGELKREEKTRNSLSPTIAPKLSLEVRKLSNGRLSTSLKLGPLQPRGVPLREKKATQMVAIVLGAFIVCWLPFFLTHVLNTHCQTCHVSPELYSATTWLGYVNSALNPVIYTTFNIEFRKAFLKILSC
Procedure: (§1) Bioactivity and ADME testing were performed for certain compounds of the invention.

Dopamine D2 = Dopamine D2 (Homo sapiens, UniProt P14416); experiment: Dopamine D2 antagonist; format: biochemical
Sequence of Dopamine D2 (P14416 whole entry): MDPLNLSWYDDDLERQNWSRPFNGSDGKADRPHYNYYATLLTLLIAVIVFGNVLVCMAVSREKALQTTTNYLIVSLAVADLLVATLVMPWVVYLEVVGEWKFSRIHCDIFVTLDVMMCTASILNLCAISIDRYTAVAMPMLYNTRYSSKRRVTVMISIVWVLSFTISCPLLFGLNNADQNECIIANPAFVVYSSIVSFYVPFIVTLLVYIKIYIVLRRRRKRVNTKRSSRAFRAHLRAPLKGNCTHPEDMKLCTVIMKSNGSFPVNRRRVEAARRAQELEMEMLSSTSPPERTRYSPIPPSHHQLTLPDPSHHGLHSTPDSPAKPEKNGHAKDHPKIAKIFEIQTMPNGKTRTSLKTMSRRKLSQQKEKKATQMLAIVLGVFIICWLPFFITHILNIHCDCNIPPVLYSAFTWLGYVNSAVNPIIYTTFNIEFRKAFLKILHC

CDK2 = CDK2 (Homo sapiens, UniProt P24941); experiment: CDK2 inhibitor; format: biochemical
PPARγ = target: T1, PPARγ (Homo sapiens, UniProt P37231); experiment: PPARγ antagonist; format: biochemical
T1 sequence (P37231 1-505): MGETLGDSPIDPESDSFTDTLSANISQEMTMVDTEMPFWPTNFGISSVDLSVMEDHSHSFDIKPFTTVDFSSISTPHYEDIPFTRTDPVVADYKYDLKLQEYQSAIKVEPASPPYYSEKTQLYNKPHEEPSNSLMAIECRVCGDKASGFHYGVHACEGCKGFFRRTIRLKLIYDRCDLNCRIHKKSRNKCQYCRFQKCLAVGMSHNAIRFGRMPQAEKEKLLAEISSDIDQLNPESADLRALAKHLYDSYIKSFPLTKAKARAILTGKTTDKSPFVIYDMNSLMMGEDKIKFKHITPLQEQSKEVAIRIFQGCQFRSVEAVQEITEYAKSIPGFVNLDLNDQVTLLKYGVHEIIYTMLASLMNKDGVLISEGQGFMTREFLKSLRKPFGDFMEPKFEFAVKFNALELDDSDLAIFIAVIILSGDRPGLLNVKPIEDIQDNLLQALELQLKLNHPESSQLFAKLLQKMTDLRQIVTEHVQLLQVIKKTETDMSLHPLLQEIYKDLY

PPARδ = target: T2, PPARδ (Homo sapiens, UniProt Q03181); experiment: PPARδ antagonist; format: biochemical
T2 sequence (Q03181 1-441): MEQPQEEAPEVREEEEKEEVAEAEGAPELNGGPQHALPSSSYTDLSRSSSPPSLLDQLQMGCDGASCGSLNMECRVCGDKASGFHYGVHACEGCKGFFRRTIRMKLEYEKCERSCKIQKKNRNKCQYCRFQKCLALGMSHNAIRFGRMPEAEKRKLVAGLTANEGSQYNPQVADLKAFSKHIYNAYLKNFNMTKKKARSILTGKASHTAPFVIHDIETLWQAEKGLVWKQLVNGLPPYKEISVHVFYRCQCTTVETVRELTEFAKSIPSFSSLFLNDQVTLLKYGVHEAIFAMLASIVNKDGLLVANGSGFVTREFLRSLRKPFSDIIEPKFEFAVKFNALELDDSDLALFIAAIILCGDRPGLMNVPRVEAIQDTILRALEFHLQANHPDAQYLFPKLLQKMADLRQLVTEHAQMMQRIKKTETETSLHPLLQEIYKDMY

PPARα = target: T3, PPARα (Homo sapiens, UniProt Q07869); experiment: PPARα inverse agonist; format: biochemical
T3 sequence (Q07869 1-468): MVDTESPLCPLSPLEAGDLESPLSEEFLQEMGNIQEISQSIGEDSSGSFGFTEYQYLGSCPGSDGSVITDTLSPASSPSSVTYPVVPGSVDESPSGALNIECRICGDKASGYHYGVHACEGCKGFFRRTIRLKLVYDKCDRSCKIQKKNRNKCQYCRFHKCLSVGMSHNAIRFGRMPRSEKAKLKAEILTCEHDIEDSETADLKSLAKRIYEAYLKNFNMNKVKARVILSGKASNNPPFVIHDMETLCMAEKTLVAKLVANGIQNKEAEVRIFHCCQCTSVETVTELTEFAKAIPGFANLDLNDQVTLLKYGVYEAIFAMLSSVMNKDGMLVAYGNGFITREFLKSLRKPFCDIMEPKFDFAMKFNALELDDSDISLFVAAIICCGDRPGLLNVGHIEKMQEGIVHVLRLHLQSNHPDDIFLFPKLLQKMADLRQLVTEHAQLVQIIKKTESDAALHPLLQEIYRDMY

Opioid δ = Opioid δ (Homo sapiens, UniProt P41143); experiment: Opioid δ antagonist; format: biochemical
Sequence of Opioid δ (P41143 whole entry): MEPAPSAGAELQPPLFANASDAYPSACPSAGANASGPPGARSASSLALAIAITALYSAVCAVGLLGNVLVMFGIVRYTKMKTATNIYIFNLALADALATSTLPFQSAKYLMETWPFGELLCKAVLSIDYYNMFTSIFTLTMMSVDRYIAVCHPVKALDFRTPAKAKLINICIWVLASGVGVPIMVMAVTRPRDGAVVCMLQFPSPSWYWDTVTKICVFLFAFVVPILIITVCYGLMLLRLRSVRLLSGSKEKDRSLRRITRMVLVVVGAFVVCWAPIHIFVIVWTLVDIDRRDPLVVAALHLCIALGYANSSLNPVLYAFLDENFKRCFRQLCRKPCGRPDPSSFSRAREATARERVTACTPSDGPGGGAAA
Procedure: as §1

Opioid μ = Opioid μ (Homo sapiens, UniProt P35372); experiment: Opioid μ antagonist; format: biochemical
Sequence of Opioid μ (P35372 whole entry): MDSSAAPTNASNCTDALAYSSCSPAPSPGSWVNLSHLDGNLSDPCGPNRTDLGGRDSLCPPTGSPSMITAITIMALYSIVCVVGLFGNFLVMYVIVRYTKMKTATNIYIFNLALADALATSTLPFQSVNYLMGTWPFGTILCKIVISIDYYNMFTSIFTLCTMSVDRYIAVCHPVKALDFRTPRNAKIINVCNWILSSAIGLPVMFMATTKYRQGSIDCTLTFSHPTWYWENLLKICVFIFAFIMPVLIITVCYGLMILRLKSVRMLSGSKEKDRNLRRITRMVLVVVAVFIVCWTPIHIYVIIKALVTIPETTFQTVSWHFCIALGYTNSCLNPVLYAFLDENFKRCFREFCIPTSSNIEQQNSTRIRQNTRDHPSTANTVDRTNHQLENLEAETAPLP
Procedure: as §1

SMILES	solubility (Solubility pH = 6.8)	solubility [1]	IC50 (CYP3A4)	logD (LogD)	PAMPA [2]	RLM Cl (RLM Cl)	IC50 (Dopamine D3)	IC50 (Dopamine D2)	IC50 (CDK2)	IC50 (PPARγ)	IC50 (PPARδ)	IC50 (PPARα)	IC50 (PPARδ; antagonist, read-out: PPARδ antagonist IC50)	IC50 (Opioid δ)	IC50 (Opioid μ)	IC50 (hERG)
O=C(O)Cc1ccc(-c2ccccc2)cc1	890 µM (≈ 189 µg/mL)	840 µM (≈ 178 µg/mL)														
O=C(NC1CCN(Cc2ccccc2)C1)c1ccc(-c2ccccc2)cc1 (stereo not shown)	13 µM (≈ 4.63 µg/mL)	27 µM (≈ 9.62 µg/mL)	> 20 µM	4.4	−3.6	43.7 mL/min/kg										0.32 µM
COc1ccccc1N1CCN(CCCCNC(=O)c2ccc(-c3ccccc3)cc2)CC1	< 5 µM	21 µM (≈ 9.32 µg/mL)	> 20 µM	4.2	−3.9	51.4 mL/min/kg	0.003 µM									0.042 µM
Cl.O=C(Cc1ccc(-c2ccccc2)cc1)Nc1cc(C2CC2)n[nH]1	< 4 µM	13 µM	> 20 µM	4.2	−3.9	50 mL/min/kg										> 30 µM
O=C(Cc1ccc(B2C=CC=CN2)cc1)Nc1cc(C2CC2)[nH]n1			7.8 µM						0.24 µM							> 30 µM
O=C(NCCS(=O)(=O)c1ccc(C(F)(F)F)cn1)c1ccc(-c2ccccc2)cc1	< 4 µM	< 4 µM	> 20 µM	3.5	−4.2	38.7 mL/min/kg				1.4 µM	3.9 µM					> 20 µM
O=C(NCCS(=O)(=O)c1ccc(C(F)(F)F)cn1)c1ccc(B2C=CCCN2)cc1	< 4 µM	6 µM (≈ 2.62 µg/mL)	> 20 µM	3.5	−4.5	>53 mL/min/kg				4.8 µM		0.052 µM	1.4 µM			> 30 µM
CC(C)[C@@H](CN1CCN(c2cccc(O)c2)[C@@H](C)C1)NC(=O)c1ccc(-c2ccccc2)cc1	50 µM (≈ 22.9 µg/mL)	349 µM (≈ 160 µg/mL)	> 20 µM	5.2	−5.7	>53 mL/min/kg								> 30 µM	7.4 µM	> 30 µM
CC(C)[C@@H](CN1CCN(c2cccc(O)c2)[C@@H](C)C1)NC(=O)c1ccc(B2C=CCCN2)cc1	26 µM (≈ 12 µg/mL)	119 µM (≈ 54.8 µg/mL)	16 µM	4.9	−5.0	>53 mL/min/kg								> 14 µM	1 µM	9.1 µM

Further lines, with some results ahead:

solubility (Solubility pH = 6.8)	solubility [1]	IC50 (CYP3A4)	logD (LogD)	PAMPA [2]	RLM Cl (RLM Cl)	IC50 (Dopamine D3)	IC50 (Dopamine D2)	IC50 (CDK2)	IC50 (PPARγ)	IC50 (PPARδ)	IC50 (PPARα)	IC50 (PPARδ; antagonist, read-out: PPARδ antagonist IC50)	IC50 (Opioid δ)	IC50 (Opioid μ)	SMILES	IC50 (hERG)
> 1000 µM	790 µM (≈ 168 µg/mL)	> 20 µM													O=C(O)Cc1ccc(B2C=CC=CN2)cc1	> 30 µM
> 30 µM	597 µM (≈ 213 µg/mL)	> 20 µM	4.1	−4.8	48.5 mL/min/kg										O=C(NC1CCN(Cc2ccccc2)C1)c1ccc(B2C=CC=CN2)cc1 (stereo not shown)	1.4 µM
46 µM (≈ 20.4 µg/mL)	220 µM (≈ 97.8 µg/mL)	11 µM	4.1	−4.3	>53 mL/min/kg	0.004 µM	0.52 µM								COc1ccccc1N1CCN(CCCCNC(=O)c2ccc(B3C=CC=CN3)cc2)CC1	0.17 µM
		> 20 µM	> 5	−4.1	46.4 mL/min/kg										COc1ccc2[nH]cc(CCNC(=O)c3ccc(-c4ccccc4)cc3)c2c1	11 µM
		17 µM	5	−4.2	51.3 mL/min/kg										COc1ccc2[nH]cc(CCNC(=O)c3ccc(B4C=CC=CN4)cc3)c2c1	7.9 µM
88 µM (≈ 25.4 µg/mL)	130 µM (≈ 37.6 µg/mL)	8.6 µM	3.2	−4.6	39.6 mL/min/kg										O=C(NCc1ccncc1)c1ccc(B2C=CC=CN2)cc1	> 30 µM
< 5 µM	< 5 µM	> 20 µM	> 5	−4.5	48.6 mL/min/kg										CN(CCc1c[nH]c2ccccc12)C(=O)c1ccc(-c2ccccc2)cc1	> 30 µM
< 5 µM	13 µM (≈ 4.62 µg/mL)	> 20 µM	4.6	−4.2	52.4 mL/min/kg										CN(CCc1c[nH]c2ccccc12)C(=O)c1ccc(B2C=CC=CN2)cc1	5.8 µM
